Measurements reported in patent US20150292030A1, “METHODS OF CHARACTERIZING AND TREATING MOLECULAR SUBSET OF MUSCLE-INVASIVE BLADDER CANCER” (BOARD OF REGENTS, THE UNIVERSITY OF TEXAS SYSTEM, priority 2012, published 2015).

Assays:
[1] = test system: human bladder cancer cell lines; test: Proliferation (MTT) assay of BGJ398 on a panel of 30 human bladder cancer cell lines; assay type: cell-based; settings: lines SW780, UC1, RT112, RT4 and UC14; FIG. 6
Text: FIG. 6. Proliferation (MTT) assay testing effect of BGJ398 on human bladder cancer cell lines.
To test this possibility, the inventors examined the effects of the FGFR-selective inhibitor BGJ398 on proliferation in the inventor's panel of 30 human bladder cancer cell lines using MTT assays.

[2] = test system: muscle-invasive bladder cancer; test: Pathological response to neoadjuvant chemotherapy at cystectomy by cluster, discovery cohort; assay type: in vivo, human; settings: cluster 2 (p53-like); FIG. 1D
Text: Tumors and clinical data were obtained from the MD Anderson genitourinary cancers research database. Fresh frozen tissues were obtained from the SPORE Tissue Core. Of note, all patients had previously signed informed consent allowing collection of their tissue and of their clinical data in the genitourinary research database. […] Patients were classified as muscle invasive for tumor growth into the muscularis propria; otherwise, they were classified as non-muscle invasive. Total RNA from human specimens were isolated using mirVana miRNA isolation kit (Ambion, Inc).
Presurgical (neoadjuvant) cisplatin-based chemotherapy is the current standard-of-care for high-risk muscle-invasive bladder cancer. […] To examine the relationship between the 3 molecular subsets and chemotherapy sensitivity, the inventors identified 18 patients within their discovery cohort that had received neoadjuvant chemotherapy and compared the pathological response rates within each cluster. Strikingly, whereas over half of the basal/cluster 1 (3/5) and luminal/cluster 3 (4/6) tumors responded to chemotherapy, none (0/7) of the p53-like cluster 2 tumors was downstaged in this initial cohort (Table 3). […] Gene expression profiling classified 3 of the tumors as basal, 4 as luminal, and 9 as p53-like (FIG. 7). […]

SMILES	drug sensitivity of proliferation (MTT) [1]	observed cisplatin resistance [2]
CCN1CCN(c2ccc(Nc3cc(N(C)C(=O)Nc4c(Cl)c(OC)cc(OC)c4Cl)ncn3)cc2)CC1 [BGJ398]	most drug-sensitive	–
N.N.[Cl][Pt][Cl] [cisplatin]	–	resistance
